{"source": "patent US11174253B2", "about": "“Compound and pharmaceutical composition containing the same” (ALPHALA CO., LTD., priority 2017, dated 2021)", "type_in_all_cases": "cell-based", "key": {"[1]": {"test_system": "hepatocellular carcinoma cell line Hep3B", "test": "Growth inhibition of Hep3B cells, 48 hr treatment, Hoechst 33342 nucleus count (GE InCell 2200)", "details": "Homo sapiens", "method_in_brief": "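Compound exposure lasted 48 hr at 37° C, 5% CO2. Surviving nuclei were counted after Hoechst 33342 staining, and survival was expressed as the treated/non-treated cell number ratio, including the ratio at 10 μM compound.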"}, "[2]": {"test_system": "SW480 colon adenocarcinoma cell line", "test": "MTS cell viability assay (NCI-60 methodology), GI50/LC50, SW480", "details": "Homo sapiens, 48 h, SW480 cells, 2 days incubation with compound", "method_in_brief": "(§1)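 Cells were plated 24 h before treatment, and a time-zero plate was read by MTS. Five 2-fold dilutions plus DMSO were then added for 48 h, and viability was measured by MTS. GI50 is from [(Ti−Tz)/(C−Tz)]×100=50 and LC50 from [(Ti−Tz)/Tz]×100=−50.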"}, "[3]": {"test_system": "NCI-H460 human lung cancer cell line", "test": "MTS cell viability assay (NCI-60 methodology), GI50/LC50, NCI-H460", "details": "48 h, NCI-H460 cells, 2 days incubation with compound", "method_in_brief": "as §1"}, "[4]": {"test_system": "Hep3B hepatocellular carcinoma cell line", "test": "MTS cell viability assay (NCI-60 methodology), GI50/LC50, Hep3B", "details": "Homo sapiens, 48 h, Hep3B cells, 2 days incubation with compound", "method_in_brief": "as §1"}, "[5]": {"details": "Table 5, ratio of number of tumor cells treated with 10 μM compound to non-treated cells"}, "[6]": {"details": "Table 1, ratio of number of tumor cells treated with 10 μM compound to non-treated cells"}}}
{"compound": "CCCOc1ccc(-c2nc(NC(=O)c3ccc([N+](=O)[O-])o3)sc2Oc2ccccc2)cc1", "note": "[Compound 5-48, 5-nitro-N-(5-phenoxy-4-(4-propoxyphenyl)thiazol-2-yl)furan-2-carboxamide]", "values": [{"measurement": "viability at 10 µM", "setting": "[1]; [5]", "result": 37, "unit": "%"}, {"measurement": "GI50", "setting": "[2]", "result": 1810, "unit": "nM"}, {"measurement": "GI50", "setting": "[3]", "result": 1400, "unit": "nM"}, {"measurement": "GI50", "setting": "[4]", "result": 5220, "unit": "nM"}, {"measurement": "LC50", "setting": "[4]", "result": 9410, "unit": "nM"}]}
{"compound": "CCOCOc1cc(OCC)ccc1-c1nnc(NC(=O)Cc2ccc3nc(N)sc3c2)s1", "note": "[Compound 1-26, 2-(2-aminobenzo[d]thiazol-6-yl)-N-(5-(4-ethoxy-2-(ethoxymethoxy)phenyl)-1,3,4-thiadiazol-2-yl)acetamide]", "values": [{"measurement": "viability at 10 µM", "setting": "[1]; [6]", "result": 59, "unit": "%"}, {"measurement": "GI50", "setting": "[2]", "result": 210, "unit": "nM"}, {"measurement": "LC50 (NCI-60 lethal concentration, 50% net cell loss vs time zero)", "setting": "[2]", "result": 630, "unit": "nM"}, {"measurement": "GI50", "setting": "[3]", "result": 200, "unit": "nM"}, {"measurement": "LC50 (concentration giving 50% net cell loss versus time zero, NCI-60 definition)", "setting": "[3]", "result": 590, "unit": "nM"}, {"measurement": "GI50", "setting": "[4]", "result": 160, "unit": "nM"}, {"measurement": "LC50", "setting": "[4]", "result": 490, "unit": "nM"}]}
{"compound": "CCCOc1ccc(-c2nc(NC(=O)c3ccc([N+](=O)[O-])s3)sc2Oc2cccc(F)c2)cc1", "note": "[Compound 5-24, N-(5-(3-fluorophenoxy)-4-(4-propoxyphenyl)thiazol-2-yl)-5-nitrothiophene-2-carboxamide]", "values": [{"measurement": "viability at 10 µM", "setting": "[1]; [5]", "result": 28, "unit": "%"}, {"measurement": "GI50", "setting": "[2]", "result": 1140, "unit": "nM"}, {"measurement": "LC50 (NCI-60 lethal concentration, 50% net cell loss vs time zero)", "setting": "[2]", "result": 4230, "unit": "nM"}, {"measurement": "GI50", "setting": "[3]", "result": 1570, "unit": "nM"}, {"measurement": "LC50 (concentration giving 50% net cell loss versus time zero, NCI-60 definition)", "setting": "[3]", "result": 3790, "unit": "nM"}, {"measurement": "GI50", "setting": "[4]", "result": 950, "unit": "nM"}, {"measurement": "LC50", "setting": "[4]", "result": 2070, "unit": "nM"}]}
{"compound": "CCCOc1ccc(-c2nc(NC(=O)c3ccc([N+](=O)[O-])s3)sc2Oc2ccc(C#N)cc2)cc1", "note": "[Compound 5-39, N-(5-(4-cyanophenoxy)-4-(4-propoxyphenyl)thiazol-2-yl)-5-nitrothiophene-2-carboxamide]", "values": [{"measurement": "viability at 10 µM", "setting": "[1]; [5]", "result": 56, "unit": "%"}, {"measurement": "GI50", "setting": "[2]", "result": 1490, "unit": "nM"}, {"measurement": "LC50 (NCI-60 lethal concentration, 50% net cell loss vs time zero)", "setting": "[2]", "result": 6540, "unit": "nM"}, {"measurement": "GI50", "setting": "[3]", "result": 230, "unit": "nM"}, {"measurement": "LC50 (concentration giving 50% net cell loss versus time zero, NCI-60 definition)", "setting": "[3]", "result": 1160, "unit": "nM"}, {"measurement": "GI50", "setting": "[4]", "result": 890, "unit": "nM"}, {"measurement": "LC50", "setting": "[4]", "result": 5530, "unit": "nM"}]}
{"compound": "CCC(C)(C)c1ccc(Oc2sc(NC(=O)c3ccc([N+](=O)[O-])s3)nc2-c2ccc(C(F)(F)F)cc2)cc1", "note": "[Compound 5-71, 5-nitro-N-(5-(4-(tert-pentyl)phenoxy)-4-(4-(trifluoromethyl)phenyl)thiazol-2-yl)thiophene-2-carboxamide]", "values": [{"measurement": "viability at 10 µM", "setting": "[1]; [5]", "result": 49, "unit": "%"}, {"measurement": "GI50", "setting": "[2]", "result": 810, "unit": "nM"}, {"measurement": "LC50 (NCI-60 lethal concentration, 50% net cell loss vs time zero)", "setting": "[2]", "result": 1720, "unit": "nM"}, {"measurement": "GI50", "setting": "[3]", "result": 1530, "unit": "nM"}, {"measurement": "LC50 (concentration giving 50% net cell loss versus time zero, NCI-60 definition)", "setting": "[3]", "result": 2400, "unit": "nM"}, {"measurement": "GI50", "setting": "[4]", "result": 630, "unit": "nM"}, {"measurement": "LC50", "setting": "[4]", "result": 660, "unit": "nM"}]}
{"compound": "CC(C)(C)c1ccc(-c2nc(NC(=O)c3ccc([N+](=O)[O-])s3)sc2-c2ccc(Br)cc2)cc1", "note": "[Compound 6-53, N-(5-(4-bromophenyl)-4-(4-(tert-butyl)phenyl)thiazol-2-yl)-5-nitrothiophene-2-carboxamide]", "values": [{"measurement": "viability at 10 µM", "setting": "[1]; Table 6, ratio of number of tumor cells treated with 10 μM compound to non-treated cells", "result": 24, "unit": "%"}, {"measurement": "GI50", "setting": "[2]", "result": 620, "unit": "nM"}, {"measurement": "LC50 (NCI-60 lethal concentration, 50% net cell loss vs time zero)", "setting": "[2]", "result": 990, "unit": "nM"}, {"measurement": "GI50", "setting": "[3]", "result": 710, "unit": "nM"}, {"measurement": "LC50 (concentration giving 50% net cell loss versus time zero, NCI-60 definition)", "setting": "[3]", "result": 1370, "unit": "nM"}, {"measurement": "GI50", "setting": "[4]", "result": 540, "unit": "nM"}, {"measurement": "LC50", "setting": "[4]", "result": 620, "unit": "nM"}]}
{"compound": "CCCCOc1cc(OCC)ccc1-c1nnc(NC(=O)Cc2ccc3nc(N)sc3c2)s1", "note": "[Compound 1-23, 2-(2-aminobenzo[d]thiazol-6-yl)-N-(5-(2-butoxy-4-ethoxyphenyl)-1,3,4-thiadiazol-2-yl)acetamide]", "values": [{"measurement": "viability at 10 µM", "setting": "[1]; [6]", "result": 71, "unit": "%"}, {"measurement": "GI50", "setting": "[2]", "result": 520, "unit": "nM"}, {"measurement": "LC50 (NCI-60 lethal concentration, 50% net cell loss vs time zero)", "setting": "[2]", "result": 520, "unit": "nM"}, {"measurement": "GI50", "setting": "[3]", "result": 580, "unit": "nM"}, {"measurement": "LC50 (concentration giving 50% net cell loss versus time zero, NCI-60 definition)", "setting": "[3]", "result": 580, "unit": "nM"}, {"measurement": "GI50", "setting": "[4]", "result": 480, "unit": "nM"}, {"measurement": "LC50", "setting": "[4]", "result": 480, "unit": "nM"}]}
{"compound": "CCCCCOc1ccc(-c2nc(NC(=O)c3ccc([N+](=O)[O-])s3)sc2Oc2ccccc2)cc1", "note": "[Compound 5-76, 5-nitro-N-(4-(4-(pentyloxy)phenyl)-5-phenoxythiazol-2-yl)thiophene-2-carboxamide]", "values": [{"measurement": "viability at 10 µM", "setting": "[1]; [5]", "result": 38, "unit": "%"}, {"measurement": "GI50", "setting": "[2]", "result": 1270, "unit": "nM"}, {"measurement": "LC50 (NCI-60 lethal concentration, 50% net cell loss vs time zero)", "setting": "[2]", "result": 5820, "unit": "nM"}, {"measurement": "GI50", "setting": "[3]", "result": 740, "unit": "nM"}, {"measurement": "LC50 (concentration giving 50% net cell loss versus time zero, NCI-60 definition)", "setting": "[3]", "result": 1520, "unit": "nM"}, {"measurement": "GI50", "setting": "[4]", "result": 560, "unit": "nM"}, {"measurement": "LC50", "setting": "[4]", "result": 1720, "unit": "nM"}]}
